Measured values reported in patent publication US9279811B2, “Methods and kits that identify tumors responsive to Src inhibitors” (OREGON HEALTH & SCIENCE UNIVERSITY, priority 2011, dated 2016).

Experiments:
Format in all cases: cell-based, human
VHL-WT SN12C cells = assay: Cell proliferation assay (cell count), SN12C
Description: (§1) Cells were split to sustain log phase growth.

SN12C-shVHL cells = assay: Cell proliferation assay (cell count), SN12C-shVHL
Description: as §1

[1] = system: ACHN cells expressing constitutively stable HIF-2α-P405A, P853A; assay: Cell cycle analysis of HIF-α mutant cell lines, ACHN HIF-2α; conditions: 48 hours post treatment
Description: (§2) Transduction of empty retroviral vector (pBabe) served as a negative control.
(§3) Flow Cytometry: Cells were plated at a density such that they were no more than 70% confluent on the day of analysis. […] For propidium iodide staining, cells were trypsinized, collected by centrifugation and washed in PBS prior to fixing in 70% v/v ethanol. Ethanol was removed by washing in PBS. Cells were incubated with 100 μg/ml RNase A (Sigma) for 5 minutes and stained with 50 μg/ml PI for 30 minutes. […] Cells were stained with fluorescein isothiocyanate (FITC)-conjugated anti-BrdU antibodies (BD Biosciences) according to the manufacturer's instructions. Following multiple washes in blocking solution and PBS, cells were stained with 5 μg/ml PI for 30 minutes. The PI or BrdU/PI-stained samples were analyzed by an LSR® FACS (Becton Dickinson) and the cell cycle profile was analyzed with the FlowJo® software (Tree Star Inc.). Phosphoprotein flow cytometry analysis was performed as previously described in Shah N P et al, Cell 14, 485 (2008), incorporated by reference herein.

SN12C VHL WT = assay: Cell cycle analysis of HIF-α mutant cell lines, SN12C, VHL WT; conditions: 48 hours post treatment
Description: as §2, §3

ACHN VHL WT cells = assay: Cell cycle analysis by flow cytometry (PI staining), ACHN VHL WT
Description: as §2, §3

SN12C shVHL cells = assay: Cell cycle analysis by flow cytometry (PI staining), SN12C shVHL
Description: as §2, §3

[2] = system: SN12C cells expressing constitutively stable HIF-2α-P405A, P853A; assay: Cell cycle analysis of HIF-α mutant cell lines, SN12C HIF-2α; conditions: 48 hours post treatment
Description: as §2, §3

SN12C VHL WT cells = assay: Cell cycle analysis by flow cytometry (PI staining), SN12C VHL WT
Description: as §2, §3

ACHN VHL WT = assay: Cell cycle analysis of HIF-α mutant cell lines, ACHN, VHL WT; conditions: 48 hours post treatment
Description: as §2, §3

ACHN shVHL cells = assay: Cell cycle analysis by flow cytometry (PI staining), ACHN shVHL
Description: as §2, §3

Cc1ccc(NC(=O)c2ccc(CN3CCN(C)CC3)cc2)cc1Nc1nccc(-c2cccnc2)n1 [imatinib]
effect on proliferation (VHL-WT SN12C cells): had no effect on the proliferation
effect on proliferation (SN12C-shVHL cells): had no effect on the proliferation

Cc1nc(Nc2ncc(C(=O)Nc3c(C)cccc3Cl)s2)cc(N2CCN(CCO)CC2)n1 [dasatinib]
Cell population (%) in G1 ([1]; dasatinib 25 nM): 53.9%
Cell population (%) in G2/M ([1]; dasatinib 25 nM): 16.1%
Cell population (%) in S ([1]; dasatinib 25 nM): 27.7%
Cell population (%) in G1 ([1]; dasatinib 50 nM): 51.9%
Cell population (%) in G2/M ([1]; dasatinib 50 nM): 19.3%
Cell population (%) in S ([1]; dasatinib 50 nM): 27.0%
Cell population (%) in G1 ([1]; dasatinib 100 nM): 55.3%
Cell population (%) in G2/M ([1]; dasatinib 100 nM): 17.7%
Cell population (%) in S ([1]; dasatinib 100 nM): 24.2%
Cell population (%) in G1 (SN12C VHL WT; dasatinib 25 nM): 60.1%
Cell population (%) in G2/M (SN12C VHL WT; dasatinib 25 nM): 13.3%
Cell population (%) in S (SN12C VHL WT; dasatinib 25 nM): 25.1%
Cell population (%) in G1 (SN12C VHL WT; dasatinib 50 nM): 59.2%
Cell population (%) in G2/M (SN12C VHL WT; dasatinib 50 nM): 11.4%
Cell population (%) in S (SN12C VHL WT; dasatinib 50 nM): 27.6%
Cell population (%) in G1 (SN12C VHL WT; dasatinib 100 nM): 60.4%
Cell population (%) in G2/M (SN12C VHL WT; dasatinib 100 nM): 11.1%
Cell population (%) in S (SN12C VHL WT; dasatinib 100 nM): 26.5%
Cell population (%) in G1 (ACHN VHL WT cells; dasatinib 25 nM): 59.7%
Cell population (%) in G2/M (ACHN VHL WT cells; dasatinib 25 nM): 12.6%
Cell population (%) in S (ACHN VHL WT cells; dasatinib 25 nM): 25.8%
Cell population (%) in G1 (ACHN VHL WT cells; dasatinib 50 nM): 62.1%
Cell population (%) in G2/M (ACHN VHL WT cells; dasatinib 50 nM): 16.0%
Cell population (%) in S (ACHN VHL WT cells; dasatinib 50 nM): 17.6%
Cell population (%) in G1 (ACHN VHL WT cells; dasatinib 100 nM): 64.5%
Cell population (%) in G2/M (ACHN VHL WT cells; dasatinib 100 nM): 14.9%
Cell population (%) in S (ACHN VHL WT cells; dasatinib 100 nM): 15.7%
Cell population (%) in G1 (SN12C shVHL cells; dasatinib 25 nM): 45.2%
Cell population (%) in G2/M (SN12C shVHL cells; dasatinib 25 nM): 17.5%
Cell population (%) in S (SN12C shVHL cells; dasatinib 25 nM): 36.9%
Cell population (%) in G1 (SN12C shVHL cells; dasatinib 50 nM): 45.4%
Cell population (%) in G2/M (SN12C shVHL cells; dasatinib 50 nM): 15.7%
Cell population (%) in S (SN12C shVHL cells; dasatinib 50 nM): 38.5%
Cell population (%) in G1 (SN12C shVHL cells; dasatinib 100 nM): 46.1%
Cell population (%) in G2/M (SN12C shVHL cells; dasatinib 100 nM): 18.5%
Cell population (%) in S (SN12C shVHL cells; dasatinib 100 nM): 35.3%
Cell population (%) in G1 ([2]; dasatinib 25 nM): 54.8%
Cell population (%) in G2/M ([2]; dasatinib 25 nM): 20.6%
Cell population (%) in S ([2]; dasatinib 25 nM): 23.6%
Cell population (%) in G1 ([2]; dasatinib 50 nM): 55.7%
Cell population (%) in G2/M ([2]; dasatinib 50 nM): 22.1%
Cell population (%) in S ([2]; dasatinib 50 nM): 21.4%
Cell population (%) in G1 ([2]; dasatinib 100 nM): 49.7%
Cell population (%) in G2/M ([2]; dasatinib 100 nM): 21.3%
Cell population (%) in S ([2]; dasatinib 100 nM): 27.8%
Cell population (%) in G1 (SN12C VHL WT cells; dasatinib 25 nM): 59.5%
Cell population (%) in G2/M (SN12C VHL WT cells; dasatinib 25 nM): 15.0%
Cell population (%) in S (SN12C VHL WT cells; dasatinib 25 nM): 23.9%
Cell population (%) in G1 (SN12C VHL WT cells; dasatinib 50 nM): 63.6%
Cell population (%) in G2/M (SN12C VHL WT cells; dasatinib 50 nM): 11.7%
Cell population (%) in S (SN12C VHL WT cells; dasatinib 50 nM): 22.8%
Cell population (%) in G1 (SN12C VHL WT cells; dasatinib 100 nM): 70.0%
Cell population (%) in G2/M (SN12C VHL WT cells; dasatinib 100 nM): 11.7%
Cell population (%) in S (SN12C VHL WT cells; dasatinib 100 nM): 16.3%
Cell population (%) in G1 (ACHN VHL WT; dasatinib 25 nM): 59.2%
Cell population (%) in G2/M (ACHN VHL WT; dasatinib 25 nM): 17.1%
Cell population (%) in S (ACHN VHL WT; dasatinib 25 nM): 21.6%
Cell population (%) in G1 (ACHN VHL WT; dasatinib 50 nM): 56.4%
Cell population (%) in G2/M (ACHN VHL WT; dasatinib 50 nM): 16.0%
Cell population (%) in S (ACHN VHL WT; dasatinib 50 nM): 25.1%
Cell population (%) in G1 (ACHN VHL WT; dasatinib 100 nM): 60.1%
Cell population (%) in G2/M (ACHN VHL WT; dasatinib 100 nM): 22.0%
Cell population (%) in S (ACHN VHL WT; dasatinib 100 nM): 17.6%
Cell population (%) in G1 (ACHN shVHL cells; dasatinib 25 nM): 50.2%
Cell population (%) in G2/M (ACHN shVHL cells; dasatinib 25 nM): 9.8%
Cell population (%) in S (ACHN shVHL cells; dasatinib 25 nM): 37.4%
Cell population (%) in G1 (ACHN shVHL cells; dasatinib 50 nM): 47.6%
Cell population (%) in G2/M (ACHN shVHL cells; dasatinib 50 nM): 14.2%
Cell population (%) in S (ACHN shVHL cells; dasatinib 50 nM): 36.7%
Cell population (%) in G1 (ACHN shVHL cells; dasatinib 100 nM): 46.1%
Cell population (%) in G2/M (ACHN shVHL cells; dasatinib 100 nM): 10.9%
Cell population (%) in S (ACHN shVHL cells; dasatinib 100 nM): 40.8%
